How the values were obtained:
Assay type in all cases: cell-based, human
[1] = system: Oct3/4-GFP+ MCF7 cells; assay: Screen for selective inhibition of Oct3/4-GFP+MCF7 cells (GFP level / cell viability, 384 well plates); details: initial screen; 3 day exposure, 5 μM, triplicate samples, relative changes in GFP levels
Procedure: MCF7 cells were used as the target population. Control cells consisted of Oct3/4-GFP-cells that were infected with a GFP-expressing lentivirus as a way of controlling for GFP expression. Initial screenings were performed in 384 well plates on triplicate samples. A fluorescent plate reader was used to quantify relative changes in GFP levels after a 3 day exposure to a 5 μM concentrations of each compound. […] These experiments were performed in 12 well plates in which 2000 cells/well were initially seeded and allowed to attach for one day. The following day (day 0), the medium was replaced with fresh medium containing the indicated concentrations of each compound. Cell counts were then performed manually on triplicate wells. Bars represent standard errors.
The cell viability assay was performed as follows:
Trypsinize cell and resuspend in MCF7 culture medium at a density of 4×10^4/ml Culture medium: alpha MEM, 10% FBS, 2 mM Glutamine, 1 mM Sodium Pyruvate, 1 mM non-essential amino acids, 100 U/ml Penicillin/Streptomycin
(1) dilute compounds to 30 μM using alpha MEM
(2) add 5 μl compounds to each well (final concentration 5 μM)
(3) add 25 μl cell suspension to each well (1000 cells/well)
(4) incubate cells with compounds for 72 hours at 37° C., 5% CO2
3. […] The plates were then read on SpectraMax M5 Microplate Reader using the wavelength of excitation 560 nm/emission 590 nm.

[2] = system: MCF7 cells and Oct3/4-GFP+MCF7 cell population; assay: Hoechst 33342 side population (SP) exclusion; details: exposure to 20 μM Reserpine; SP fractions of MCF7 and Oct3/4-GFP+MCF7 cells
Procedure: In other studies, Oct3/4-GFP+MCF7 cells were examined by qRT-PCR for expression of the breast cancer CSC markers CD133 and Oct3/4. After normalizing to GAPDH, the ratios of these transcripts in Oct3/4-GFP+MCF7 cells and non-CSC-MCF7 cells were 6.3 for CD 133 and 2.5 for Oct3/4. […] The SP is due to CSCs ability to exclude the dye Hoechst 33342 and reflects high expression of ABCG2 transporters such as MDR1 and BRCP. […] These fractions could also be reduced by >70% following exposure to 20 μM Reserpine, which inhibits ABC transporters. Moreover, the overall mean fluorescence intensity of the entire Oct3/4-GFP+MCF population was two-fold lower than that of the MCF7population. Thus, based on independent qRT-PCR assessments of CSC gene expression profiles and on uptake/exclusion of Hoechst 33342, one can conclude that the Oct3/4-GFP+MCF7 population consists of highly enriched and stable cells that are unable to differentiate into TACs.

[3] = system: Oct3/4-GFP+MCF7 cells versus unfractionated MCF7 cells; assay: Differential chemotherapeutic responses, viable adherent cell counts by trypan blue exclusion; details: FIG. 6; viable adherent cells over time
Procedure: FIG. 6. Differential chemotherapeutic responses of MCF7 and Oct3/4-GFP+MCF7 cells. 10^5 unfractionated, MCF7 cells (dotted line) or Oct3/4GFP+MCF7 cells (broken line) were seeded into 6 well plates and allowed to achieve ca. 30-50% confluence. The indicated concentrations of adriamycin, etoposide, 5-fluorouracil, cis-platinum, methotrexate, and taxol were then added (day 0). The total number of viable adherent cells was then determined at the indicated times by trypan blue exclusion. […] Note that in most cases Oct4/4-GFP+MCF7 actually grew in the presence of all agents. These experiments were repeated at least two additional times with similar outcomes.
Differential chemosensitivities of Oct3/4-GFP+MCF7 cells. It is believed that CSCs are more resistant to chemotherapeutic agents than TACs, thus at least partly accounting for the propensity of many tumors to relapse after an initial response. To test this idea, MCF7 cells and Oct3/4-GFP+MCF7 CSCs were exposed to six different chemotherapeutic agents commonly employed to treat breast cancer.

Cl.NC[C@@H]1O[C@H](C23CC4CC(CC(C4)C2)C3)Cc2c1ccc(O)c2O [A77636]
selectivity for Oct3/4-GFP+MCF7 cells over control GFP-lentivirus cells [1]: potentially selective agents

COC(=O)[C@H]1[C@H]2C[C@@H]3c4[nH]c5cc(OC)ccc5c4CCN3C[C@H]2C[C@@H](OC(=O)c2cc(OC)c(OC)c(OC)c2)[C@@H]1OC [Reserpine]
reduction of side population (SP) fractions [2]: > 70%

CC(=O)c1c(O)c(C)c(O)c(Cc2c(O)c3c(c(C(=O)/C=C/c4ccccc4)c2O)OC(C)(C)C=C3)c1O [Rottlerin, 5,7-dihydroxy-2,2-dimethyl-6-(2,4,6-trihydroxy-3-methyl-5-acetylbenzyl)-8-cinnamoyl-1,2-chromene]
selectivity for Oct3/4-GFP+MCF7 cells over control GFP-lentivirus cells [1]: potentially selective agents

CC(=O)O[C@H]1C(=O)[C@@]2(C)[C@H]([C@H](OC(=O)c3ccccc3)[C@]3(O)C[C@H](OC(=O)[C@H](O)[C@@H](NC(=O)c4ccccc4)c4ccccc4)C(C)=C1C3(C)C)[C@]1(OC(C)=O)CO[C@@H]1C[C@@H]2O [taxol]
sensitivity/resistance of Oct3/4-GFP+MCF7 cells relative to MCF7 cells [3]: significantly more sensitive

From patent US20100298352A1, “SMALL MOLECULE INHIBITORS OF CANCER STEM CELLS” (University of Pittsburgh - Of the Commonwealth System of …, priority 2009, published 2010)
